Laboratory results as given in paper PMC11747586, “Synthesis and Investigation of Peptide–Drug Conjugates Comprising Camptothecin and a Human Protein‐Derived Cell‐Penetrating Peptide” (Chemical Biology & Drug Design, 2025).
Positions of bridges follow the written chain, without caps; N, C: chain ends. Residues, ends and D or L forms follow the SMILES beside them.

Assays:
[1] = system: HT144 cells; assay: Compound internalization/association with HT144 cells (TOF-MS of cell extracts); assay type: cell-based; conditions: 4 μM, 1 h
Procedure: FIGURE 4 (A) Membrane permeability and cellular uptake of PDCs, scaffold peptides, and CPT. Compounds were added to PAMPA wells (4 μM) and incubated for 4 h. Supernatant from apical and basolateral sides of the membrane were collected and analyzed using LC–MS. The amount in the combined soluble fractions was compared to the starting amount to determine % recovery, and the apparent permeability (Papp) was calculated as before (Sevin et al. [2013]). Data is expressed as mean ± SD from a single experiment with three technical replicates. (B) Internalization/cell membrane association of PDCs 12–14 and PDIP with HT144 cells. […] The relative amount of internalized peptide or PDC was determined by integrating area under the curve (AUC) for the [M + 6H]^6+ m/z peak (for the intact mass) using time of flight–mass spectrometry (see Figure S2). […] Data is expressed as mean ± SD from a single experiment with three technical replicates for each treatment and control and was analyzed with ANOVA (Tukey multiple comparisons; **p < 0.01, *p < 0.05). […] Data is expressed as mean ± SD from a single experiment with three technical replicates for each treatment and was analyzed with ANOVA (Fisher multiple paired comparisons; **p < 0.01, *p < 0.05). […]
The area under the curve (AUC) for the [M+6H]6+ m/z peak for each compound was determined using Sciex […]

[2] = system: HaCaT (noncancerous) cells; assay: Cytotoxicity (resazurin) against cultured HaCaT noncancerous cells; conditions: read-out: CC50 HaCaT; 72 h incubation, resazurin; mean (SEM)
Procedure: (§1) Cell death was measured using resazurin, with 0.1% (v/v) Triton X‐100 as a control for 100% cell death. Data points are expressed as mean ± SD for at least two biological replicates. Dose response curves were fitted using [inhibitor] versus response with variable slope, Graphpad Prism v10. […] RBC lysis was determined by measuring released hemoglobin, with 0.1% (v/v) Triton X‐100 as a control for 100% cell lysis. Melittin was included as a membranolytic control. Data points are expressed as mean ± SD for two technical replicates. Dose response curves were fitted using [inhibitor] versus response with variable slope, Graphpad Prism v10. […] CC50 values are expressed as mean (SEM). […]
(§2) HaCaT cells were grown in DMEM medium and HT144 cells were grown in RPMI medium supplemented with 2 mM L-glutamine and 10 mM sodium pyruvate. Media were supplemented with 10% (v/v) fetal bovine serum, 100 units/mL of penicillin and […] of streptomycin. Flasks of cultured cells were maintained in a humidified incubator (37 °C, 5% CO2) and passaged every 2–3 days to maintain cultures between 20–90% confluence. Cell line identity was verified by comparing […]
(§3) STR profiles of the cell lines against database entries from the DSMZ-German collection of microorganisms and cell cultures, GmBH https://celldive.dsmz.de/str/browse.
(§4) Toxicity to the HT144 and HaCaT cell lines was tested following peptide treatment by measuring the metabolism of resazurin into fluorescent resorufin. The assays were performed with 5000 cells/well (96-well plate) in serum free media. Cells were incubated with serially diluted peptides, PDCs or drugs for 72 h or 24 h (37 °C, 5% CO2). PBS and 0.1% (v/v) Triton X-100 were included as controls for 0% and 100% toxicity. Resazurin was added at 0.02% (w/v) final concentration 2 h prior to the assay end point. Fluorescence (λex = 560 nm, λem = 585 nm) was measured using a Tecan infinite M1000Pro multiplate reader. Percentage cytotoxicity was calculated relative to 0% and 100% controls.
(§5) Dose-response curves were fitted and CC50 values were determined using [inhibitor] vs response with four parameters with the top constrained to 100% (GraphPad Prism version 10.0.2). Data was collected as three biological replicates, with experiments conducted on different days.
(§6) Red blood cell (RBC) lysis
(§7) Human RBCs and serum were obtained from healthy volunteers via the Red Cross Lifeblood, Brisbane, Australia. RBCs were washed three times with PBS and stored in culture medium (RPMI

[3] = as above
Procedure: as §1, §2, §3, §4, §5, §6, §7

## CC[C@H](C)[C@@H]1NC(=O)[C@H](CCCCN)NC(=O)[C@H](CCCCN)NC(=O)[C@H](Cc2ccc(O)cc2)NC(=O)[C@H](CC(C)C)NC(=O)[C@@H]2CCCN2C(=O)CNC(=O)CNC(=O)[C@@H](NC(=O)CN)CSSC[C@@H](C(=O)N[C@@H](CCC(=O)O)C(=O)N[C@@H](CO)C(N)=O)NC(=O)[C@H](CC(C)C)NC(=O)[C@H](CCCCN)NC(=O)[C@H](CCCCN)NC(=O)[C@H]([C@@H](C)CC)NC(=O)[C@H]([C@@H](C)CC)NC(=O)[C@H](CCCCN)NC(=O)[C@H](CCCCN)NC(=O)[C@H](Cc2ccc(O)cc2)NC(=O)[C@H](CC(C)C)NC(=O)[C@@H]2CCCN2C(=O)[C@H](C)NC(=O)CNC(=O)CNC(=O)[C@H](CO)NC(=O)CNC(=O)CNC(=O)[C@H](CO)NC(=O)[C@H](CCC(=O)O)NC(=O)[C@H](CC(C)C)NC(=O)[C@H](CC(C)C)NC(=O)[C@H](CCCCN)NC(=O)[C@H](CCCCN)NC(=O)[C@H]([C@@H](C)CC)NC1=O [PDIP, reference compound] (H-GCGGPLYKKIIKKLLESGGSGGAPLYKKIIKKLCES-NH2; disulfide 2-34; N-terminus assumed)
[1]
  recovered intact conjugate/peptide (percentage of internalized compound): 9%
[2]
  CC50: ≥ 32 µM
[3]
  CC50: > 32 µM
